{"source": "patent US20230226079A1", "about": "“METHODS AND COMPOSITIONS FOR TREATMENT OF SOLID TUMORS” (Saint Louis University, priority 2022, published 2023)", "key": {"JHU029 cells": {"tested_on": "JHU029 cells", "test": "Cytotoxicity assay (Cell Counting Kit-8) in JHU029 cells", "type": "cell-based", "conditions": "48 h, treated for 48 h; read-out: IC50 dose, JHU029 cells", "from_the_text": "Normal oral keratinocytes (NOK) (kindly gifted by Dr. Karl Mugner, Tuffs University, Boston, MA, USA) were maintained in Keratinocyte SFM medium supplemented with EGF and bovine pituitary extract (GIBCO, Life Technologies, Berkeley, MO, USA) and 1% penicillin/ streptomycin. HNC cell line Ca127 was purchased from the ATCC. JHU029 (JHU-29) and JHU022 (JHU-22) cell lines were procured from the Johns Hopkins University (Baltimore, MD, USA). The Ca127 and JHU022 cells were maintained in Dulbecco's Modified Eagle Medium (DMEM), and JHU029 cells were in RPMI1640 (Sigma, St. Louis, Mo., USA) media supplemented with 10% FBS and 1% penicillin/ streptomycin (Sigma-Aldrich, St. Louis, Mo., USA) in a humidified CO2 incubator. The cell lines are routinely tested in the Inventors' laboratory to rule out mycoplasma contamination using a commercial Mycoplasma Detection kit (MycoAlert™, Lonza, Morrisville, N.C., USA). Ca127 cells are tongue origin and JHU022 and JHU029 cells are from larynx origin.\nBitter melon extract (BME) was prepared from the Chinese variety of young bitter melons (raw and green) as described previously (Rajamoorthi et al. (2013) PLoS ONE; 8, e78006). Briefly, BME was prepared by aqueous extraction from whole fruit without seeds using a household juicer at room temperature with subsequent centrifugation at 15000 g at 4 C for 30 min. BME was stored at −80 C for further analysis. […]"}, "[1]": {"tested_on": "HNC (JHU022, JHU029, Ca127) cell lines", "type": "cell-based", "description": "Ca127, JHU029, JHU022 and NOK were seeded in 96 well-plate (5000 cells/well) and cells were treated with different concentration of M-I for 48 h. There were untreated control and DMSO treated vehicle control group for comparison. Cytotoxicity assay was performed using Cell Counting Kit-8 (Dojindo Molecular Technology, Rockville, Md., USA) according to manufacturer instruction.\nDue to their limited reported biology, the Inventors have selected a few triterpenoids and triterpene glycosides, based on their availability, for preliminary in vitro screening against HNC (JHU022, JHU029, Ca127) cell lines. The Inventors identified momordicine-I (M-I) as one of the chemical constituents at the retention time of 21.06 min in the BME (FIG. 1A). The M-I [C30H4804, PubChem CID: 14807332; IUPAC Name: (3S, 7S, 8S, 9R, 10R, 13R, 14S, 17R) 3,7-dihydroxy-17-(4-hydroxy-6-methylhept-5-en-2-yl)-4,4,13,14-tetramethyl-2,3,7,8,10,11, 12,15, 16,17-decahydro-1H-cyclopenta[a]phenanthrene-9-carbaldehyde] is a white crystalline solid that belongs to the cucurbitane-type triterpene class (FIG. 1B). […] Other compounds, mom ordicoside K (MK), and karavilagenin D (KD), were also examined on HNC cell cytotoxicity assay. These, two other compounds required much higher amounts (>50 ug/mL) even for -40% cell death."}, "Toxicity study, 5 days": {"test": "Toxicity study, 5 days", "type": "in vivo", "conditions": "BME 30% in drinking water", "description": "For toxicity study, C57B1/6 male mice were received either 30% BME through drinking water or 20 mg/kg of M-I twice a day or 30 mg/kg of M-I once a day by IP injection for 5 days. There were three mice in each group, including untreated control. Blood was collected on day 6, and serum was prepared. Serum parameters related to hepatotoxicity (total bilirubin, alanine transaminase, aspartate transaminase, and alkaline phosphatase) and nephrotoxicity (urea and creatinine) were performed."}}}
{"smiles": "CC(C)=CC(O)CC(C)[C@H]1CC[C@@]2(C)[C@@H]3[C@@H](O)C=C4[C@@H](CC[C@H](O)C4(C)C)[C@]3(C=O)CC[C@]12C", "note": "(stereo partly drawn) [M-I, (3S, 7S, 8S, 9R, 10R, 13R, 14S, 17R) 3,7-dihydroxy-17-(4-hydroxy-6-methylhept-5-en-2-yl)-4,4,13,14-tetramethyl-2,3,7,8,10,11, 12,15, 16,17-decahydro-1H-cyclopenta[a]phenanthrene-9-carbaldehyde]", "values": [{"measurement": "IC50", "setting": "JHU029 cells", "value": "< 8", "unit": "µg/mL"}, {"measurement": "inhibition of HNC cells in cytotoxicity assay", "setting": "[1]", "value": "inhibited HNS cells in a dose-dependent manner"}, {"measurement": "body weight in toxicity study", "setting": "Toxicity study, 5 days; M-I 20 mg/kg twice a day or 30 mg/kg once a day IP, five days", "value": "stable"}, {"measurement": "serum total bilirubin, alanine transaminase, aspartate transaminase, alkaline phosphatase, creatinine, urea and glucose versus untreated control", "setting": "Toxicity study, 5 days; blood on day six, M-I IP five days", "value": "comparable"}]}
